# Test results from patent US9102669B2, “Substituted piperidinyl-pyridazinyl derivatives useful as SCD 1 inhibitors” (Janssen Pharmaceutica NV, priority 2011, dated 2015).
# Where “and” joins values, the source holds several entries; their conditions need not be identical. Equal values may be shown once.
# Assays:
# SCD1 [1] = biological target: SCD1 (Homo sapiens (Human), UniProt O00767); assay: SCD1 13C-palmitic acid assay in A431 cells; assay type: cell-based; settings: read-out: A431 cells 13C-PA IC50
# SCD1 (Homo sapiens (Human), UniProt O00767), sequence (O00767 whole entry): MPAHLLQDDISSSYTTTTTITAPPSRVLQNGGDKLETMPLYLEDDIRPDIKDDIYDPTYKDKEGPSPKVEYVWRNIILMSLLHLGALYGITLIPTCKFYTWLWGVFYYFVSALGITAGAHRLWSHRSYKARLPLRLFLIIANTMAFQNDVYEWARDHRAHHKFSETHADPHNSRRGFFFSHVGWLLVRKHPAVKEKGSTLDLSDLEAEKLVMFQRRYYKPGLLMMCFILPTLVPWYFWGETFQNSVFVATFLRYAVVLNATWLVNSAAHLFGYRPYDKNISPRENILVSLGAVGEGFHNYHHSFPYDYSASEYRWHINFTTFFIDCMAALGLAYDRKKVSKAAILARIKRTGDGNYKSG
# Method: Human epithelial carcinoma A431 cells were seeded at 100,000 cells/well in complete growth medium (DMEM, Cellgro#10-013-CM, 4.5 g/L glucose, 10% FBS) in the presence of 0.05 mg/mL human insulin (Hannas Pharmaceutical Supply Co Inc, Humanlin 100 U/ml, 4 mg/ml) in 96-well tissue culture plate. 24 hr later, the cells were washed extensively with Assay Buffer (DMEM, Cellgro#10-013-CM, 4.5 g/L glucose, supplemented with 0.05 mg/mL Human Insulin and 0.1% Fatty Acid Free BSA). […] The cells were then returned to the tissue culture incubator (37° C. and 5% CO2) for 4 hrs. At the end of incubation, the cells were washed three times with 200 μL/well Hanks buffer (HBSS) and then stored at −20° C. until extraction.
# For fatty acid extraction, after thawing out the plates, 40 μL of 1N KOH (containing 5 μM of internal standard 7,7,8,8-D4 palmitate) was added to each well and cell plates were incubated at 37° C. for 30 minutes. […] Acetonitrile (100 μL) was then added to extract fatty acids, followed by centrifugation at 3000 rpm for 10 minutes. 75 μL of extract was then transferred to a new glass vial in a 96-well cluster plate. 5 μL was injected for LC/MS analysis for detection of ^13C-palmitic acid and ^13C-palmitoleic acid. Formation of product ^13C-palmitoleic acid was determined as an index of SCD1 activity.
# LC/MS analysis was performed as following. An Agilent 1100 Liquid Chromatographic System (Palo Alto, Calif.) consisting of a binary pump, a degasser and an autosampler was used. Separation of free fatty acids was performed on a Zorbax SB-C8 column (2.1×50 mm, particle size=3.5 μm). An isocratic elution was carried out with 10 mM triethylamine acetate in water: acetonitrile (3:7) at a flow rate of 0.3 mL/min. The column temperature was set at 30° C. and the sample injection volume was 5 μL. The LC run cycle was 4 min. A Micromass triple-quadrupole Quattro Micro mass […] (Waters, Beverly, Mass.) was interfaced with the LC system through a Z-spray electrospray ion source and was operated in the negative ion mode. Nitrogen was used as nebulizing gas, desolvation gas and cone curtain gas and argon was chosen as collision gas. The triple quadrupole MS source parameters were set as follows: capillary voltage, 3200V; cone voltage, 25V; exctractor 2V; source temperature, 120° C.; desolvation temperature, 300° C.; cone gas flow, 50 L/h; and desolvation gas flow, 700 L/h. […] MassLynx software version 4.0 was used for system control and data processing. The signal of U-^13C-palmitoleic acid was normalized to an internal standard.
# SCD1 [2] = biological target: SCD1 (Rattus norvegicus (Rat), UniProt P07308); assay: SCD1 enzymatic assay in rat liver microsomes (RLM); assay type: biochemical; settings: rat liver microsomes; for inhibition at 1 µM: 1 μM test compound, read-out: % Inh.@ 1 μM
# SCD1 (Rattus norvegicus (Rat), UniProt P07308), sequence (P07308 whole entry): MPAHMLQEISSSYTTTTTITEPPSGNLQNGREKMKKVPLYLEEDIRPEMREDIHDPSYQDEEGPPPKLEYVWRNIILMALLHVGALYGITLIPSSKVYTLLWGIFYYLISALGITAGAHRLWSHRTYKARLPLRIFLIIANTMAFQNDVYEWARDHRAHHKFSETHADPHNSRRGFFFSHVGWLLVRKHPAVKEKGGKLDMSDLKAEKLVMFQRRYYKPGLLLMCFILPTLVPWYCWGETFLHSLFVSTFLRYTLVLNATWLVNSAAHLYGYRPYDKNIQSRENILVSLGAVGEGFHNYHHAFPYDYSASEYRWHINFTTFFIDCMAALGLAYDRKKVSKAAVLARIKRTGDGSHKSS
# Method: Step 1: Preparation of Rat Liver Microsome (RLM):
# Sprague Dawley rats from Charles River (200-225 g) underwent 2-cycle of fast-re-feeding (24-hour fast followed by 24-hour feeding with fat-free high carbohydrate diet, Reseach Diet, D00042802). The livers were removed and homogenized 1:4 (w/v) with pre-chilled, homogenizing buffer (10 mM Tris-HCl, 0.25 M sucrose, 1 mM EDTA, pH 7.4, supplemented with protease inhibitor cocktail). The homogenate was spun at 12,000×g for 15 min at 4° C. The supernatant was then re-centrifuged at 100,000×g for 60 min at 4° C. The pellet was re-suspended in 2 ml pre-chilled […] potassium phosphate buffer, pH 7.2, 10 mM EDTA at a concentration of 20 mg/ml. The resulting rat liver microsome (RLM) preparation was stored at −80° C.
# Step 2: SCD1 Enzymatic Assay in RLM:
# The SCD1 enzymatic assay was done in a volume of 50 μL using 10 μg of RLM (prepared as described above) in a 96-well polypropylene plate (enzyme reaction buffer contains 0.1 M K-Phosphate Buffer, 10 mM ATP, 6 mM MgCl2. 1 mM CoA, 1 mM β-NADH, 1.6 mM L-glutathione, 20 μM Stearoyl-CoA). Stearoyl-[9,10-^3H]-CoA (ARC-0390, 1 mCi/mL, 60 Ci/mmol,) was added at a final concentration of 2 μCi/mL. Test compound was then added to the reaction mixture at the selected concentration. After incubation at room temperature for 2 hours, 5 μL 1 N HCl was added to stop the reaction, followed by addition of 25 μL of 10% charcoal. The reaction mixture was then transferred to 96-well Multiscreen plate (Millipore, Cat#MSFCN6B50). […] The measured cpm values were fitted with Sigmoidal dose-response curve fit with Graphpad Prism.
Structure (SMILES),IC50 (SCD1 [1]),inhibition at 1 µM (SCD1 [2]),IC50 (SCD1 [2])
"COc1ncc(-c2ccc(N3CCC(c4noc5ccc(F)cc45)CC3)nn2)cn1 [compound 34, 5-fluoro-3-(1-(6-(2-methoxypyrimidin-5-yl)pyridazin-3-yl)piperidin-4-yl)benzo[d]isoxazole]",17 nM,75%,95 nM
"OCc1ccc(-c2ccc(N3CCC(c4noc5ccc(F)cc45)CC3)nn2)cn1 [compound 35, (5-(6-(4-(5-fluorobenzo[d]isoxazol-3-yl)piperidin-1-yl)pyridazin-3-yl)pyridin-2-yl)methanol]",2 nM,99%,8 nM
"CCOC(=O)Cn1cc(-c2ccc(N3CCC(N4CCc5ccc(F)cc54)CC3)nn2)cn1 [compound 50, ethyl 2-(4-(6-(4-(6-fluoroindolin-1-yl)piperidin-1-yl)pyridazin-3-yl)-1H-pyrazol-1-yl)acetate]",44 nM,93%,31 nM
"Fc1ccc2c(c1)N(C1CCN(c3ccc(-c4cnn(CCN5CCOCC5)c4)nn3)CC1)CC2 [compound 71, 4-(2-(4-(6-(4-(6-fluoroindolin-1-yl)piperidin-1-yl)pyridazin-3-yl)-1H-pyrazol-1-yl)ethyl)morpholine]",> 1000 nM and 160 nM,71%,275 nM
"CCOCCn1cc(-c2ccc(N3CCC(c4noc5ccc(F)cc45)CC3)nn2)cn1 [compound 75, 3-(1-(6-(1-(2-ethoxyethyl)-1H-pyrazol-4-yl)pyridazin-3-yl)piperidin-4-yl)-5-fluorobenzo[d]isoxazole]",81 nM,98%,21 nM
"Cc1cnn(-c2ccc(N3CCC(c4noc5ccc(F)cc45)CC3)nn2)c1 [compound 94, 5-fluoro-3-(1-(6-(4-methyl-1H-pyrazol-1-yl)pyridazin-3-yl)piperidin-4-yl)benzo[d]isoxazote]",40 nM,96%,12 nM
"OCc1cnn(-c2ccc(N3CCC(c4noc5ccc(F)cc45)CC3)nn2)c1 [compound 95, (1-(6-(4-(5-fluorobenzo[d]isoxazol-3-yl)piperidin-1-yl)pyridazin-3-yl)-1H-pyrazol-4-yl)methanol]",62 nM,88%,96 nM
"COCc1cnn(-c2ccc(N3CCC(c4noc5ccc(F)cc45)CC3)nn2)c1 [compound 96, 5-fluoro-3-(1-(6-(4-(methoxymethyl)-1H-pyrazol-1-yl)pyridazin-3-yl)piperidin-4-yl)benzo[d]isoxazole]",22 nM,98%,8 nM
"CNCc1cnn(-c2ccc(N3CCC(c4noc5ccc(F)cc45)CC3)nn2)c1 [compound 97, 1-(1-(6-(4-(5-fluorobenzo[d]isoxazol-3-yl)piperidin-1-yl)pyridazin-3-yl)-1H-pyrazol-4-yl)-N-methylmethanamine]",> 1000 nM,11%,

# Results, then the compound that gave them:
IC50 (SCD1 [1]),inhibition at 1 µM (SCD1 [2]),IC50 (SCD1 [2]),Structure (SMILES)
34 nM,97%,11 nM,"COc1ncc(-c2ccc(N3CCC(N4CCc5ccc(F)cc54)CC3)nn2)cn1 [compound 38, 6-fluoro-1-(1-(6-(2-methoxypyrimidin-5-yl)pyridazin-3-yl)piperidin-4-yl)indoline]"
45 nM,92%,92 nM,"Cn1cc(-c2ccc(N3CCC(n4ncc5ccccc54)CC3)nn2)cn1 [compound 40, 1-(1-(6-(1-methyl-1H-pyrazol-4-yl)pyridazin-3-yl)piperidin-4-yl)-1H-indazole]"
6 nM,98%,15 nM,"CC(=O)Nc1ccc(-c2ccc(N3CCC(N4CCc5ccc(F)cc54)CC3)nn2)cn1 [compound 45, N-(5-(6-(4-(6-fluoroindolin-1-yl)piperidin-1-yl)pyridazin-3-yl)pyridin-2-yl)acetamide]"
17 nM,101%,15 nM,"Cn1cc(-c2ccc(N3CCC(n4ncc5c(Cl)cccc54)CC3)nn2)cn1 [compound 61, 4-chloro-1-(1-(6-(1-methyl-1H-pyrazol-4-yl)pyridazin-3-yl)piperidin-4-yl)-1H-indazole]"
559 nM,68%,387 nM,"NC(=O)Cn1cc(-c2ccc(N3CCC(N4CCc5ccc(F)cc54)CC3)nn2)cn1 [compound 69, 2-(4-(6-(4-(6-fluoroindolin-1-yl)piperidin-1-yl)pyridazin-3-yl)-1H-pyrazol-1-yl)acetamide]"
82 nM,94%,68 nM,"Cn1cc(-c2ccc(N3CCC(n4ncc5c(F)cccc54)CC3)nn2)cn1 [compound 70, 4-fluoro-1-(1-(6-(1-methyl-1H-pyrazol-4-yl)pyridazin-3-yl)piperidin-4-yl)-1H-indazole]"
262 nM,86%,145 nM,"Cn1cc(-c2ccc(N3CCC(n4ncc5cc(F)ccc54)CC3)nn2)cn1 [compound 73, 5-fluoro-1-(1-(6-(1-methyl-1H-pyrazol-4-yl)pyridazin-3-yl)piperidin-4-yl)-1H-indazole]"
22 nM,96%,16 nM,"Cn1cc(-c2ccc(N3CCC(n4ncc5ccc(Cl)cc54)CC3)nn2)cn1 [compound 74, 6-chloro-1-(1-(6-(1-methyl-1H-pyrazol-4-yl)pyridazin-3-yl)piperidin-4-yl)-1H-indazole]"
20 nM,95%,21 nM,"Fc1ccc2c(c1)N(C1CCN(c3ccc(-c4cn[nH]c4)nn3)CC1)CC2 [compound 77, 1-(1-(6-(1H-pyrazol-4-yl)pyridazin-3-yl)piperidin-4-yl)-6-fluoroindoline]"
731 nM,74%,52 nM,"Cn1cc(-c2ccc(N3CCC(n4ncc5c(C(F)(F)F)cccc54)CC3)nn2)cn1 [compound 80, 1-(1-(6-(1-methyl-1H-pyrazol-4-yl)pyridazin-3-yl)piperidin-4-yl)-4-(trifluoromethyl)-1H-indazole]"
15 nM,96%,8 nM,"Cn1cc(-c2ccc(N3CCC(n4ncc5ccc(C(F)(F)F)cc54)CC3)nn2)cn1 [compound 81, 1-(1-(6-(1-methyl-1H-pyrazol-4-yl)pyridazin-3-yl)piperidin-4-yl)-6-(trifluoromethyl)-1H-indazole]"
96 nM,99%,53 nM,"OCCn1cc(-c2ccc(N3CCC(n4ncc5ccc(F)cc54)CC3)nn2)cn1 [compound 82, 2-(4-(6-(4-(6-fluoro-1H-indazo-1-yl)piperidin-1-yl)pyridazin-3-yl)-1H-pyrazol-1-yl)ethanol]"
11 nM,102%,6 nM,"Cn1cc(-c2ccc(N3CCC(n4nc(Cl)c5ccccc54)CC3)nn2)cn1 [compound 83, 3-chloro-1-(1-(6-(1-methyl-1H-pyrazol-4-yl)pyridazin-3-yl)piperidin-4-yl)-1H-indazole]"
